Publication PMC3299889 (Analytical Biochemistry, 2012)

Experiments:
Type in all cases: biochemical
HCV NS3/4A = HCV NS3/4A (Hepatitis C virus genotype 1a, UniProt P27958)
SARS-CoV 3CLpro = SARS-CoV 3CLpro (Severe acute respiratory syndrome coronavirus, UniProt P0C6X7)
SARS-CoV PLpro = SARS-CoV PLpro (Severe acute respiratory syndrome coronavirus, UniProt P0C6X7)

HCV NS3/4A, sequence (P27958 1027-1657): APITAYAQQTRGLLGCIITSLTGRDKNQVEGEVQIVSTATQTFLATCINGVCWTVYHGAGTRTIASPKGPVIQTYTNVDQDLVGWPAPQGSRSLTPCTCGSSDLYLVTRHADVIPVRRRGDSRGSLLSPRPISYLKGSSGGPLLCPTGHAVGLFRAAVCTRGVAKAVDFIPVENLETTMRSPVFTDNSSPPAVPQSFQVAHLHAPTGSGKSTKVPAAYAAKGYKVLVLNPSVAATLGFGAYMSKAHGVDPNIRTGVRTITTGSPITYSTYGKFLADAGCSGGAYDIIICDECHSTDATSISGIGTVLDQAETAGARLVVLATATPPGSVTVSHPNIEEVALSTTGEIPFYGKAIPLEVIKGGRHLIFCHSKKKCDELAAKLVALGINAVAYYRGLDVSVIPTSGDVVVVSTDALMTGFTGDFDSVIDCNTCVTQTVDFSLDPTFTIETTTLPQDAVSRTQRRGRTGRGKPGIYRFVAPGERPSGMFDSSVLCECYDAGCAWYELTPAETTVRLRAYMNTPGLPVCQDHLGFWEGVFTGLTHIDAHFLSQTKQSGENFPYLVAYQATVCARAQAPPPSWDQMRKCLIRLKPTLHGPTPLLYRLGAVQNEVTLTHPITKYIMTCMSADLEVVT
HCV NS3/4A, sequence (P27958 1658-1711 partner limits assumed): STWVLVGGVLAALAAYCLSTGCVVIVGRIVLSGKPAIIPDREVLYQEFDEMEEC

SMILES | Vmax (HCV NS3/4A) | change of enzyme efficiency (Kcat/KM) (HCV NS3/4A) | Vmax (SARS-CoV 3CLpro) | Vmax (SARS-CoV PLpro) | increase of KM (SARS-CoV PLpro) | Kcat/KM ratio (HCV NS3/4A) | Kcat/KM ratio (SARS-CoV 3CLpro) | Km (SARS-CoV 3CLpro) | Kcat/KM ratio (SARS-CoV PLpro) | Km (HCV NS3/4A) | Km (SARS-CoV PLpro)
O[C@@H](CS)[C@@H](O)CS (racemic) [DTT, dithiothreitol] | 181 ± 21 RFU/10 min | 1.6 fold | 435 ± 12 RFU/10 min | 813 ± 36 RFU/10 min | 4 fold | – | – | – | – | – | –
N[C@@H](CCC(=O)N[C@@H](CS)C(=O)NCC(=O)O)C(=O)O [GSH, reduced glutathione] | 151 ± 8 RFU/10 min | – | 516 ± 9 RFU/10 min | 449 ± 14 RFU/10 min | 1.5 fold | 1.5 | 1.2 | 16.1 ± 0.8 µM | 1.0 | – | –
O=C(O)CCP(CCC(=O)O)CCC(=O)O [TCEP, tris(2-carboxyethyl)phosphine] | 75 ± 15 RFU/10 min | – | 472 ± 18 RFU/10 min | 441 ± 41 RFU/10 min | 2.5 fold | 0.5 | – | – | – | – | –
OCCS [β-MCE, β-mercaptoethanol] | 161 ± 8 RFU/10 min | – | 453 ± 24 RFU/10 min | 438 ± 30 RFU/10 min | – | 1.4 | 1.2 | 14.8 ± 1.2 µM | 1.2 | 2.5 ± 0.1 µM | 117 ± 7 µM
